Experimental data as given in patent US20260216168A1, “MODULATION OF PD-1 SIGNALING FOR TREATMENT OF DISEASES” (Wuhan University, priority 2023, published 2026).
Entries after “also recorded” stand apart in the source; their conditions may differ.

Columns and labels:
MARCH5 [1] = target: T1, MARCH5 (Homo sapiens, UniProt Q9NX47); assay: MARCH5 / γc-luciferase reporter system in co-transfected HEK293 cells (screen of FDA-approved drugs); format: cell-based; conditions: HEK293 cells co-transfected with MARCH5 and γc-luciferase fusion protein; increase = MARCH5 inhibition
T1 construct: expressed in transfected cells; host or cells: HEK293
T1 sequence (Q9NX47 1-278): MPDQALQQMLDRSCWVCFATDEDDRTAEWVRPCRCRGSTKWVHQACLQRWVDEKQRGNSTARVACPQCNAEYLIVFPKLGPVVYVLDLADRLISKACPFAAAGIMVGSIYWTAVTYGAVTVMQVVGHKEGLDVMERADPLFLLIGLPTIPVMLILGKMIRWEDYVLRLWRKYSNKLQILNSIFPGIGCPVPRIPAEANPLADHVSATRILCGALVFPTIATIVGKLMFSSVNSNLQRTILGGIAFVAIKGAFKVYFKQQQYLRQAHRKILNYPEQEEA
Excerpt: Unfortunately, no pharmacological inhibitors of MARCH5 have been reported. We designed a reporter system in which HEK293 cells are co-transfected with two plasmids encoding MARCH5 and γc-luciferase fusion protein respectively. In this system, inhibition of MARCH5 by an inhibitor would result in increased luciferase activity in reporter assays.
Using this system, we screened a collection of Food and Drug Administration-approved drugs and identified 10 compounds that increased luciferase activity to more than 1.5-folds (Table 1). […] Pitavastatin is a unique lipophilic statin and potent inhibitor of HMG-CoA reductase with a strong effect on lowering plasma total cholesterol and triacylglycerol. Pitavastatin has also been reported to have pleiotropic beneficial effects such as suppression of inflammation, regulation of angiogenesis and osteogenesis, improvement of endothelial function and arterial stiffness.

MARCH5 [2] = target: T1, MARCH5; assay: MARCH5-mediated degradation of γc in HEK293 cells; format: cell-based
Protocol: HEK293 cells were transfected by standard calcium phosphate precipitation. The empty control plasmid was added to ensure that each transfection receives the same amount of total DNA.
Cells were lysed in 1 ml of NP-40 lysis buffer (20 mM Tris-HCl, 150 mM NaCl, 1 mM EDTA, 10% Nonidet P-40, […] Triton X-100, […] aprotinin, 10 μg/ml leupeptin, and 1 mM phenylmethylsulfonyl fluoride, PMSF). For each immunoprecipitation reaction, a 0.4 ml aliquot of lysate was incubated with 0.5-2 μg of the indicated antibody or control IgG and 35 μL of a 1:1 slurry of Protein-G Sepharose (GE Healthcare) at 4° C. for 3 h. The Sepharose beads were washed three times with 1 ml of lysis buffer containing 500 mM NaCl. The precipitates were fractionated by SDS-PAGE, and immunoblotting analysis was performed with the indicated antibodies. For ubiquitination assays, the immunoprecipitants were re-extracted in NP-40 lysis buffer containing 1% SDS and denatured by heating for 10 min. The supernatants were diluted with regular lysis buffer until the concentration of SDS was decreased to 0.1%, following by re-immunoprecipitation with the indicated antibodies. The immunoprecipitants were analyzed by immunoblotting with the ubiquitin antibody.

γc [3] = assay: γc degradation in Jurkat cells with degradation-route inhibitors (CHX chase or PD-L1 stimulation); format: cell-based, human
Protocol: PD-1-expressing Jurkat cells were pre-stimulated with PHA (50 ng/ml) for 36 h and then treated with CHX (0.1 mM) for the indicated times before immunoblotting analysis with the indicated antibodies. […] PD-1-expressing Jurkat cells were stimulated with PHA (50 ng/ml) in the presence of 2 μg/ml human PD-L1-Fc fusion protein or control (human IgG1) for 36 h, and then treated with MG132 ([…]), NH4Cl (25 mM) or 3-MA (500 ng/ml) for 12 h before immunoblotting analysis with the indicated antibodies. • (D) PD-1 ligation induces polyubiquitination of γc. PD-1-expressing Jurkat cells were stimulated with PHA (50 ng/ml) for the indicated times before co-immunoprecipitation and immunoblotting analysis with the indicated antibodies. • (E) MARCH5 promotes degradation of γc in a dose-dependent manner. HEK293 cells were transfected with the indicated plasmids for 24 h before immunoblot analysis with the indicated antibodies. • (F) Association of γc with MARCH5. […]
Cells were lysed in 1 ml of NP-40 lysis buffer (20 mM Tris-HCl, 150 mM NaCl, 1 mM EDTA, 10% Nonidet P-40, […] Triton X-100, […] aprotinin, 10 μg/ml leupeptin, and 1 mM phenylmethylsulfonyl fluoride, PMSF). […] The immunoprecipitants were analyzed by immunoblotting with the ubiquitin antibody.

γc [4] = assay: Effects of other statin drugs on the γc level; format: cell-based; conditions: other HMG-CoA reductase inhibitor statins
Excerpt: Statin drugs, such as lovastatin, simvastatin, fluvastatin sodium and rosuvastatin calcium, are thought to target HMG-CoA reductase. Therefore, we examined the effects of these statin drugs on the γc level.

tumor = assay: PC or rosuvastatin calcium alone or with IL-2 on tumor growth in mice; format: in vivo, mouse
Excerpt: We further tested the anti-tumor effects of PC in mouse MC38 colorectal carcinoma and B16F10 melanoma models.

| Rel. Luc. Act (MARCH5 [1]) | Compound | further results |
| --- | --- | --- |
| 1.85 | O=C(/C=C/c1cccc(S(=O)(=O)Nc2ccccc2)c1)NO [Belinostat] | – |
| 1.60 | Nc1ccccc1NC(=O)c1ccc(CNC(=O)OCc2cccnc2)cc1 [Entinostat] | – |
| 1.83 | Nc1ccccc1NC(=O)c1ccc(CNc2nccc(-c3cccnc3)n2)cc1 [Mocetinostat] | – |
| 1.75 | CCCCc1nc2cc(/C=C/C(=O)NO)ccc2n1CCN(CC)CC [Pracinostat] | – |
| 1.60 | O=P(O)(O)C(O)(Cc1cccnc1)P(=O)(O)O [Risedronate Sodium] | – |
| 1.86 | Nc1cc(F)ccc1NC(=O)c1ccc(CNC(=O)/C=C/c2cccnc2)cc1 [Tucidinostat] | – |

Second part, the compound before the results:

| Compound | Rel. Luc. Act (MARCH5 [1]) | further results |
| --- | --- | --- |
| NC(=O)N1CCC(CC(=O)N2CCC([C@H]3c4ncc(Br)cc4CCc4cc(Cl)cc(Br)c43)CC2)CC1 [Lonafarnib] | 2.88 | – |
| Cl.N [NH4Cl, ammonium chloride] | – | MARCH5-mediated degradation of γc (MARCH5 [2]): inhibited MARCH5-mediated degradation of γc; γc degradation after termination of protein synthesis by CHX (γc [3]; Jurkat cells, MG132 100 μM, NH4Cl 25 mM or 3-MA 500 ng/ml 4 h, then CHX 0.1 mM 2 h): markedly inhibited; also recorded: inhibits γc degradation; PD-L1-induced degradation of γc (γc [3]; PD-1-expressing Jurkat cells, PHA + PD-L1-Fc 36 h, then inhibitor 12 h): also inhibited; also recorded: inhibits PD-1 ligation-induced degradation of γc |
| O=C(CCCCCCC(=O)Nc1ccccc1)NO [Vorinostat] | 1.58 | – |
| CC[C@H](C)C(=O)O[C@H]1C[C@@H](C)C=C2C=C[C@H](C)[C@H](CC[C@@H]3C[C@@H](O)CC(=O)O3)[C@H]21 [lovastatin] | – | γc level (γc [4]): up-regulated the level of γc |
| CC(C)c1nc(N(C)S(C)(=O)=O)nc(-c2ccc(F)cc2)c1/C=C/[C@@H](O)C[C@@H](O)CC(=O)[O-].CC(C)c1nc(N(C)S(C)(=O)=O)nc(-c2ccc(F)cc2)c1/C=C/[C@@H](O)C[C@@H](O)CC(=O)[O-].[Ca+2] [rosuvastatin calcium] | – | γc level (γc [4]): up-regulated the level of γc; synergistic effect with IL-2 on tumor suppression (tumor; combined with IL-2, mice): no such synergism was observed; tumor growth (tumor; statin administered alone, mice): suppressed tumor growth |
| Chidamide | 1.59 | – |
